Source: ChEMBL document CHEMBL1777784, “New antiplasmodial indole alkaloids from Hunteria zeylanica” (Bioorg Med Chem Lett, 2011)

Key:
Plasmodium falciparum = assay: Antiplasmodial activity against Plasmodium falciparum 3D7 by Geimsa staining method; format: functional, organism-based
[1] = Selectivity index, ratio of IC50 for Plasmodium falciparum 3D7 to IC50 for human HL60 cells; set-up: species or system HL-60
HL-60 = assay: Cytotoxicity against human HL60 cells; format: cell-based

SMILES	IC50 (Plasmodium falciparum)	Ratio IC50 [1]	IC50 (HL-60)	IC50 (Plasmodium falciparum; Plasmodium falciparum, 3D7)
C/C=C1/C[N@@+]2(C)CCc3c([nH]c4ccc(O)c([C@@H]5C[C@@]6(CC)CCCN7CCc8c(n5c5ccccc85)[C@H]76)c34)[C@H]2C[C@@H]1CCO (stereo in doubt; 5) [BISNICALATERINE B]	0.05 µM	>1000	–	–
C/C=C1/C[N@@+]2(C)CCc3c([nH]c4ccc(O)c([C@@H]5C[C@@]6(CC)CCCN7CCc8c(n5c5ccccc85)[C@H]76)c34)[C@H]2C[C@@H]1CCO (stereo in doubt; 4) [BISNICALATERINE B]	1.13 µM	>44	> 50 µM	–
CCc1c[n+]2ccc3c4ccccc4[nH]c3c2cc1CCO [NICALATERINE A]	–	>450	> 50 µM	0.11 µM
C/C=C1/C[N@@+]2(C)CCc3c([nH]c4ccc(O)c(C5=C[C@@]6(CC)CCCN7CCc8c(n5c5ccccc85)[C@H]76)c34)[C@H]2C[C@@H]1CCO [BISNICALATERINE D]	–	–	> 50 µM	> 50 µM
C/C=C1/CN(C)[C@H]2Cc3c([nH]c4ccccc34)[C@H](n3c4c(c5ccccc53)C[C@H]3[C@@H](C(=O)OC)[C@H](C[C@H]4O)/C(=C\C)CN3C)C[C@H]1[C@@H]2C(=O)OC [BISNICALATERINE A]	–	3.7	16.2 µM	4.36 µM
